Measured values as given in patent publication US12077503B2, “Substituted cyclic amides and their use as herbicides” (FMC CORPORATION, priority 2015, dated 2024).

What was measured:
Type in all cases: in vivo
[1] = system: windgrass (Apera spica-venti); assay: Test D preemergence; conditions: scale 0 to 100
Outline: (§1)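 Seeds sown in silt loam soil and sprayed preemergence with test chemicals in a non-phytotoxic solvent mixture containing surfactant. After about 21 d in a controlled growth environment, plants were compared with untreated controls and rated visually from 0 (no effect) to 100 (complete control).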

[2] = system: field violet (Viola arvensis); assay: Test D preemergence; conditions: scale 0 to 100
Outline: as §1

[3] = system: deadnettle (henbit deadnettle, Lamium amplexicaule); assay: Test D preemergence; conditions: scale 0 to 100
Outline: as §1

[4] = system: field poppy (Papaver rhoeas); assay: Test D preemergence; conditions: scale 0 to 100
Outline: as §1

[5] = system: foxtail, green (green foxtail, Setaria viridis); assay: Test D preemergence; conditions: scale 0 to 100
Outline: as §1

[6] = system: lambsquarters (Chenopodium album); assay: Test D preemergence; conditions: scale 0 to 100
Outline: as §1

Kochia (Kochia scoparia) = assay: Test D preemergence; conditions: scale 0 to 100
Outline: as §1

[7] = system: chickweed (common chickweed, Stellaria media); assay: Test D preemergence; conditions: scale 0 to 100
Outline: as §1

[8] = system: chamomile (scentless chamomile, Matricaria inodora); assay: Test D preemergence; conditions: scale 0 to 100
Outline: as §1

[9] = system: barley, spring (spring barley, Hordeum vulgare); assay: Test D preemergence; conditions: scale 0 to 100
Outline: as §1

[10] = system: radish, wild (wild radish, Raphanus raphanistrum); assay: Test D preemergence; conditions: scale 0 to 100
Outline: as §1

[11] = system: ryegrass, Italian (Italian ryegrass, Lolium multiflorum); assay: Test D preemergence; conditions: scale 0 to 100
Outline: as §1

[12] = system: ducksalad (Heteranthera limosa); assay: Test C flooded paddy test; conditions: Flood, 0 is no effect, 100 is complete control
Outline: (§2)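 Plants grown to the 2-leaf stage in pots flooded to 3 cm above soil; compounds applied directly into the paddy water, depth held throughout. After 13 to 15 d in greenhouse, injury visually rated against untreated controls on a 0–100 scale (0 no effect, 100 complete control).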

rice (Oryza sativa) = assay: Test C flooded paddy test; conditions: Flood, 0 is no effect, 100 is complete control
Outline: as §2

[13] = system: barnyardgrass (Echinochloa crus-galli); assay: Test C flooded paddy test; conditions: Flood, 0 is no effect, 100 is complete control
Outline: as §2

[14] = system: sedge, umbrella (small-flower umbrella sedge, Cyperus difformis); assay: Test C flooded paddy test; conditions: Flood, 0 is no effect, 100 is complete control
Outline: as §2

CN1C[C@H](c2ccc(C(F)(F)F)cc2)[C@@H](C(=O)Nc2cccc(F)c2F)C1=O [Compound 623, (3S,4S)—N-(2,3-difluorophenyl)-1-methyl-2-oxo-4-[4-(trifluoromethyl)phenyl]-3-pyrrolidinecarboxamide]
Plant response rating: Windgrass ([1]; 31 g ai/ha): 85
Plant response rating: Windgrass ([1]; 62 g ai/ha): 90
Plant response rating: Windgrass ([1]; 125 g ai/ha): 95
Plant response rating: Windgrass ([1]; 250 g ai/ha): 95
Plant response rating: Field Violet ([2]; 31 g ai/ha): 0
Plant response rating: Field Violet ([2]; 62 g ai/ha): 0
Plant response rating: Field Violet ([2]; 125 g ai/ha): 10
Plant response rating: Field Violet ([2]; 250 g ai/ha): 15
Plant response rating: Deadnettle ([3]; 31 g ai/ha): 25
Plant response rating: Deadnettle ([3]; 62 g ai/ha): 65
Plant response rating: Deadnettle ([3]; 125 g ai/ha): 75
Plant response rating: Deadnettle ([3]; 250 g ai/ha): 75
Plant response rating: Field Poppy ([4]; 31 g ai/ha): 80
Plant response rating: Field Poppy ([4]; 62 g ai/ha): 80
Plant response rating: Field Poppy ([4]; 125 g ai/ha): 85
Plant response rating: Field Poppy ([4]; 250 g ai/ha): 100
Plant response rating: Foxtail, Green ([5]; 31 g ai/ha): 95
Plant response rating: Foxtail, Green ([5]; 62 g ai/ha): 98
Plant response rating: Foxtail, Green ([5]; 125 g ai/ha): 98
Plant response rating: Foxtail, Green ([5]; 250 g ai/ha): 98
Plant response rating: Lambsquarters ([6]; 31 g ai/ha): 55
Plant response rating: Lambsquarters ([6]; 62 g ai/ha): 60
Plant response rating: Lambsquarters ([6]; 125 g ai/ha): 80
Plant response rating: Lambsquarters ([6]; 250 g ai/ha): 95
Plant response rating: Kochia (Kochia (Kochia scoparia); 31 g ai/ha): 25
Plant response rating: Kochia (Kochia (Kochia scoparia); 62 g ai/ha): 75
Plant response rating: Kochia (Kochia (Kochia scoparia); 125 g ai/ha): 95
Plant response rating: Kochia (Kochia (Kochia scoparia); 250 g ai/ha): 95
Plant response rating: Chickweed ([7]; 31 g ai/ha): 65
Plant response rating: Chickweed ([7]; 62 g ai/ha): 95
Plant response rating: Chickweed ([7]; 125 g ai/ha): 95
Plant response rating: Chickweed ([7]; 250 g ai/ha): 95
Plant response rating: Chamomile ([8]; 31 g ai/ha): 20
Plant response rating: Chamomile ([8]; 62 g ai/ha): 80
Plant response rating: Chamomile ([8]; 125 g ai/ha): 85
Plant response rating: Chamomile ([8]; 250 g ai/ha): 100
Plant response rating: Barley, Spring ([9]; 31 g ai/ha): 5
Plant response rating: Barley, Spring ([9]; 62 g ai/ha): 15
Plant response rating: Barley, Spring ([9]; 125 g ai/ha): 35
Plant response rating: Barley, Spring ([9]; 250 g ai/ha): 65
Plant response rating: Radish, Wild ([10]; 31 g ai/ha): 0
Plant response rating: Radish, Wild ([10]; 62 g ai/ha): 15
Plant response rating: Radish, Wild ([10]; 125 g ai/ha): 50
Plant response rating: Radish, Wild ([10]; 250 g ai/ha): 85
Plant response rating: Ryegrass, Italian ([11]; 31 g ai/ha): 0
Plant response rating: Ryegrass, Italian ([11]; 62 g ai/ha): 15
Plant response rating: Ryegrass, Italian ([11]; 125 g ai/ha): 40
Plant response rating: Ryegrass, Italian ([11]; 250 g ai/ha): 65

CN1C[C@H](c2ccc(F)c(F)c2)[C@@H](C(=O)Nc2ccccc2F)C1=O [Compound 596, (3S,4S)-4-(3,4-difluorophenyl)-N-(2-fluorophenyl)-1-methyl-2-oxo-3-pyrrolidinecarboxamide]
Plant response rating (scale of 0 to 100), Ducksalad ([12]; 31 g ai/ha): 30
Plant response rating (scale of 0 to 100), Ducksalad ([12]; 62 g ai/ha): 60
Plant response rating (scale of 0 to 100), Ducksalad ([12]; 125 g ai/ha): 90
Plant response rating (scale of 0 to 100), Ducksalad ([12]; 250 g ai/ha): 100
Plant response rating (scale of 0 to 100), Rice (rice (Oryza sativa); 31 g ai/ha): 0
Plant response rating (scale of 0 to 100), Rice (rice (Oryza sativa); 62 g ai/ha): 0
Plant response rating (scale of 0 to 100), Rice (rice (Oryza sativa); 125 g ai/ha): 10
Plant response rating (scale of 0 to 100), Rice (rice (Oryza sativa); 250 g ai/ha): 10
Plant response rating (scale of 0 to 100), Barnyardgrass ([13]; 31 g ai/ha): 0
Plant response rating (scale of 0 to 100), Barnyardgrass ([13]; 62 g ai/ha): 60
Plant response rating (scale of 0 to 100), Barnyardgrass ([13]; 125 g ai/ha): 75
Plant response rating (scale of 0 to 100), Barnyardgrass ([13]; 250 g ai/ha): 85
Plant response rating (scale of 0 to 100), Sedge, Umbrella ([14]; 31 g ai/ha): 0
Plant response rating (scale of 0 to 100), Sedge, Umbrella ([14]; 62 g ai/ha): 0
Plant response rating (scale of 0 to 100), Sedge, Umbrella ([14]; 125 g ai/ha): 0
Plant response rating (scale of 0 to 100), Sedge, Umbrella ([14]; 250 g ai/ha): 0
